The values that follow come from ChEMBL document CHEMBL3526061, “Glucuronidation of edaravone by human liver and kidney microsomes: biphasic kinetics and identification of UGT1A9 as the major UDP-glucuronosyltransferase isoform” (Drug Metab Dispos, 2012).

What all share (type): ADME
For data set [1], the system named is Liver microsome. The experiment in a line: Drug metabolism in human liver microsomes assessed as drug glucuronidation in presence of 5 to 35 uM androsterone by LC-MS/MS method. A general note: Liver microsomes are a subcellular fraction often used to study metabolism.
The target of data set [2] is T1, UDP-glucuronosyltransferase 1A3 (Homo sapiens, UniProt P35503).
T1 sequence (P35503 whole entry): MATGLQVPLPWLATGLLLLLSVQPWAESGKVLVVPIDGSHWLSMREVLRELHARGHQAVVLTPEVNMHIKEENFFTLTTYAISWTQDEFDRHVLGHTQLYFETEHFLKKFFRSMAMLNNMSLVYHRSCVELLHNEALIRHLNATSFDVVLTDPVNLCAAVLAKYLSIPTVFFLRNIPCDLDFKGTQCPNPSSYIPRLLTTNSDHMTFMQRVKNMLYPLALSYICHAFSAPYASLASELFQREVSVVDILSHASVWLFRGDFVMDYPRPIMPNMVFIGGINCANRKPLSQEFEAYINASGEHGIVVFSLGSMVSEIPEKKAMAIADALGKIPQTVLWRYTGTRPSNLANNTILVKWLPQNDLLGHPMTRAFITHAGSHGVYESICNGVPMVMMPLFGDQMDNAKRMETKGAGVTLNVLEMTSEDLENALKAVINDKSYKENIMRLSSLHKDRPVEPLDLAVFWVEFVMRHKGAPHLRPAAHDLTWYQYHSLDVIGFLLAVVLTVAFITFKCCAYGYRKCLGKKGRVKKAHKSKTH
The experiment in a line: Activity of human recombinant UGT1A3 expressed in insect cells assessed as enzyme mediated glucuronidation at 500 uM by LC-MS/MS method.

In data set [3] the target is T2, UDP-glucuronosyltransferase 1A7 (Homo sapiens, UniProt Q9HAW7).
T2 sequence (Q9HAW7 whole entry): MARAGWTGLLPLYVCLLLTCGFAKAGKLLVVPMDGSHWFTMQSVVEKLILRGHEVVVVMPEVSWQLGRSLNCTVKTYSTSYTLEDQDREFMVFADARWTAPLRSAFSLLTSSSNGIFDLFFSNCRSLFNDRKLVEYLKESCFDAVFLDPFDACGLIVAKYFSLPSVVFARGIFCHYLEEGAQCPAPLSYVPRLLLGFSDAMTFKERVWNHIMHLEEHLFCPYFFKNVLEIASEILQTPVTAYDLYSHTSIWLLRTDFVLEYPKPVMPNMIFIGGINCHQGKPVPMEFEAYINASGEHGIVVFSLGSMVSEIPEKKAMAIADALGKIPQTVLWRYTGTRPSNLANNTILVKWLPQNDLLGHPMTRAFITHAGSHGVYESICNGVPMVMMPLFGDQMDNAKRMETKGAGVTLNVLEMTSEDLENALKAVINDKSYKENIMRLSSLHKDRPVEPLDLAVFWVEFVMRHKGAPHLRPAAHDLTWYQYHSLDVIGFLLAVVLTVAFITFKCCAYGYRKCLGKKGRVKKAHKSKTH
Briefly: Activity of human recombinant UGT1A7 expressed in insect cells assessed as enzyme mediated glucuronidation at 12.5 uM by LC-MS/MS method.

The nature of data set [4]: Drug metabolism in human kidney microsomes assessed as drug glucuronidation in presence of 5 to 35 uM androsterone by LC-MS/MS method.
Data set [5] deals with T3, UDP-glucuronosyltransferase 1A4 (Homo sapiens, UniProt P22310).
T3 sequence (P22310 whole entry): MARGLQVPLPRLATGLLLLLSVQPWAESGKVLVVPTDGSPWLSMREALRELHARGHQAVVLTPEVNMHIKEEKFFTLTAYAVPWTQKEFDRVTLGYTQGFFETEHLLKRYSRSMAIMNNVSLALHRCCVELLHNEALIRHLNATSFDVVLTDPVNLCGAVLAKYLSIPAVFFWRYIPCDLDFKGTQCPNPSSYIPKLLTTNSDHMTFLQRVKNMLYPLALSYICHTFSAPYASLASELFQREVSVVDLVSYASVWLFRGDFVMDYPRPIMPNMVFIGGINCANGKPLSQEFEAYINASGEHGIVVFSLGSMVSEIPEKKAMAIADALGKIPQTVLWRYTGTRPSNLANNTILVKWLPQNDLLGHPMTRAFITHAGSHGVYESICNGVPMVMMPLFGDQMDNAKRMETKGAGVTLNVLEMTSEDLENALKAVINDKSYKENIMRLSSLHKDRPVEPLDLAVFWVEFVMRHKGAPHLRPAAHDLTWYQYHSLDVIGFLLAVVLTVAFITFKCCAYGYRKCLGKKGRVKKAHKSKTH
The experiment in a line: Activity of human recombinant UGT1A4 expressed in insect cells assessed as enzyme mediated glucuronidation at 500 uM by LC-MS/MS method.

Data set [6] addresses T4, UDP-glucuronosyltransferase 2B7 (Homo sapiens, UniProt P16662).
T4 sequence (P16662 whole entry): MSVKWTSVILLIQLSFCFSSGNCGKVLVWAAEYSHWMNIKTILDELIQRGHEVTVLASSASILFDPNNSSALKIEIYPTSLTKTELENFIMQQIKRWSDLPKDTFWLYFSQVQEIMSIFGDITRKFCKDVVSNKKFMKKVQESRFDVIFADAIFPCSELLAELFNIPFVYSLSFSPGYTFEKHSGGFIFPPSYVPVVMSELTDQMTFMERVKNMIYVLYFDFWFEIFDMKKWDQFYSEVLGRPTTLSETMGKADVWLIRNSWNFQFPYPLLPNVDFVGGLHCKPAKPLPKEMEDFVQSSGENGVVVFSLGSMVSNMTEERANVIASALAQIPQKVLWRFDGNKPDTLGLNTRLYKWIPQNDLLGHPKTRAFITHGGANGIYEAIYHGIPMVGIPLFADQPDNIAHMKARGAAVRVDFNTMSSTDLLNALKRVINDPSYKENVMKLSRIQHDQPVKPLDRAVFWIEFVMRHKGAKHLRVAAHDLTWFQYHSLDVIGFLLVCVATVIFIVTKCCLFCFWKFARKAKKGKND
The experiment in a line: Activity of human recombinant UGT2B7 expressed in insect cells assessed as enzyme mediated glucuronidation at 500 uM by LC-MS/MS method.

Data set [7] relates to Liver microsome. Briefly: Drug metabolism in human liver microsomes assessed as drug glucuronidation per mg tissue in presence of BSA by LC-MS/MS method.

Take `CC1=NN(c2ccccc2)C(=O)C1` [EDARAVONE]: the Drug metabolism entry is “metabolite_detected” with Liver microsome [1]; “metabolite_detected” in data set [2]; “metabolite_detected” in data set [3]; “metabolite_detected” in data set [4]; “metabolite_not_detected” in data set [5]; “metabolite_detected” in data set [6]. In addition, the VmaxH in the data set on Liver microsome [7] was found to be 137.9 pmol/min/g. Besides, the VmaxL with Liver microsome [7] came to 4904 pmol/min/g.
